This note sets out measurements from patent US10457914B2, “Optimized methods for differentiation of cells into cells with hepatocyte and hepatocyte progenitor phenotypes, cells produced by the methods, and methods for using the cells” (priority 2008, dated 2019).

The experiment has as its system rat MAPCs. The experiment in a line: In vitro hepatic differentiation of rat MAPCs, read out by qRT-PCR. The class given is cell-based. The method, then:
Undifferentiated MAPCs were expanded at large scale until several million cells were obtained. Cells then were plated at 50,000-60,000 cells/cm^2 in Matrigel (2%) coated wells. Initially, cells were cultured in expansion medium until they reached 80-90% confluency 16 hours later. Then, cells were washed twice with PBS and the medium was switched to differentiation medium. Basal differentiation medium consisted of DMEM (60%), MCDB (40%), ascorbic acid (IX), penicillin/streptomycin (1×), beta-mercaptoethanol, ITS (0.25×), LA-BSA (0.25×) and dexamethasone (10^-6M). Understanding the molecular signals favoring liver development is essential for the development of a logical in vitro differentiation protocol to modulate stem cell differentiation towards the hepatic fate. With this in mind, different cytokines at variable concentrations and chronological orders were investigated for their hepatocyte inducing capacity in […]. Cytokines tested included Nodal, its co-receptor Cripto, ActivinA, Wnt3a, BMP4, bFGF, aFGF, FGF8b, EGF, Nicotinamide, heparan sulphate proteoglycan, Oncostatin M, HGF and Follistatin. All cytokines were purchased from R&D, Minneapolis, USA. Apart from the cytokines, medium components also play an important role in guiding cells towards a specific fate. […]

As to “insulin: medium component (ITS); a lower amount was used to avoid adipogenesis”, the “expression of mature markers (albumin, TAT)” value (high concentration of dexamethasone together with low concentration of insulin in differentiation medium) was “enhanced expression of some mature markers”.

B1: Wnt3a: recombinant cytokine, hepatic differentiation factor, 50 ng/ml in step 1 (protein, UniProt P56704 19-352, looked up)
Protein Wnt-3a: SYPIWWSLAVGPQYSSLGSQPILCASIPGLVPKQLRFCRNYVEIMPSVAEGIKIGIQECQHQFRGRRWNCTTVHDSLAIFGPVLDKATRESAFVHAIASAGVAFAVTRSCAEGTAAICGCSSRHQGSPGKGWKWGGCSEDIEFGGMVSREFADARENRPDARSAMNRHNNEAGRQAIASHMHLKCKCHGLSGSCEVKTCWWSQPDFRAIGDFLKDKYDSASEMVVEKHRESRGWVETLRPRYTYFKVPTERDLVYYEASPNFCEPNPETGSFGTRDRTCNVSSHGIDGCDLLCCGRGHNARAERRREKCRCVFHWCCYVSCQECTRVYDVHTCK
On to B1, for which, where the note is “serum-free conditions, in the complete absence of serum cell death occurred”, the induction of differentiation entry is reported as “differentiation was induced”.
